Take `O=C(CC(=O)c1cccn1Cc1ccc(F)cc1)c1ccncn1`: the melting point is 128 to 129 °C.

(Values after patent US20030229079A1 (published 2003).)
